How the values were obtained:
[1] = target: T1, Alpha-2C adrenergic receptor (Homo sapiens, UniProt P18825); experiment: DRUGMATRIX: Adrenergic Alpha-2C radioligand binding (ligand: [3H] MK-912); type: cell membranes, Sf9, Membrane; conditions: sf9
T1 sequence (P18825 whole entry): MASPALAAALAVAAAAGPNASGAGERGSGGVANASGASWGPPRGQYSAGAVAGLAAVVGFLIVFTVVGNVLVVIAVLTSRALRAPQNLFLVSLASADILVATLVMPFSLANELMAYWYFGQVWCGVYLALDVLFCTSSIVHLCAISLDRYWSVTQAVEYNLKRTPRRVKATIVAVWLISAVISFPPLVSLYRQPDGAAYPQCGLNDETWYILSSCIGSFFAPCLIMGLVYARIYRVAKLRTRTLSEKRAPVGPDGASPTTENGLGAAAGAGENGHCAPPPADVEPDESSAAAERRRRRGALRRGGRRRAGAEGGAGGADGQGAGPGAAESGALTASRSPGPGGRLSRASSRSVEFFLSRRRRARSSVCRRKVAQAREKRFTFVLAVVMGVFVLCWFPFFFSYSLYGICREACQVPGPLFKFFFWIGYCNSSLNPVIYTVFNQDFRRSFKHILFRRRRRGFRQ

[2] = target: T2, Type-2 angiotensin II receptor (Homo sapiens, UniProt P50052); experiment: biochemical; type: cell-based, CHO-K1; conditions: cho-k1; also: in other assays of this panel Not Active means under 50% inhibition at 10 µM
T2 sequence (P50052 whole entry): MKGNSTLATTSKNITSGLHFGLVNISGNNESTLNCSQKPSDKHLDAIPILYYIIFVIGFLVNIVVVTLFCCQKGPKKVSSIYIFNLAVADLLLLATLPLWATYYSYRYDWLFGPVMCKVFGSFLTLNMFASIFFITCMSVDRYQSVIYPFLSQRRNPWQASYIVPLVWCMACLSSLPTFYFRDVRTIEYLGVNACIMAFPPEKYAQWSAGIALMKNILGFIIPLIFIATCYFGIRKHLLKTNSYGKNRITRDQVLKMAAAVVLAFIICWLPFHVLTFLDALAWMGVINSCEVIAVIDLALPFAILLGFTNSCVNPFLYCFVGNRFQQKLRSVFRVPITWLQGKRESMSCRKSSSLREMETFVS

[3] = target: Carbonic anhydrase 2 (Homo sapiens, UniProt P00918); experiment: DRUGMATRIX: Carbonic Anhydrase II enzyme inhibition (substrate: 4-Nitrophenyl acetate (4-NPA)); type: tissue-based, Erythrocyte; conditions: erythrocyte; Not Active = under 50% inhibition at 10 µM
[4] = DRUGMATRIX: Interleukin IL-1 radioligand binding (ligand: [125I] interleukin 1beta); type: cell membranes, Membrane; conditions: nih3t3; Not Active = under 50% inhibition at 10 µM
[5] = target: T3, Muscarinic acetylcholine receptor M2 (Homo sapiens, UniProt P08172); type: cell membranes, CHO-K1, Membrane; conditions: cho-k1; also: in other assays of this panel Not Active means under 50% inhibition at 10 µM
T3 sequence (P08172 whole entry): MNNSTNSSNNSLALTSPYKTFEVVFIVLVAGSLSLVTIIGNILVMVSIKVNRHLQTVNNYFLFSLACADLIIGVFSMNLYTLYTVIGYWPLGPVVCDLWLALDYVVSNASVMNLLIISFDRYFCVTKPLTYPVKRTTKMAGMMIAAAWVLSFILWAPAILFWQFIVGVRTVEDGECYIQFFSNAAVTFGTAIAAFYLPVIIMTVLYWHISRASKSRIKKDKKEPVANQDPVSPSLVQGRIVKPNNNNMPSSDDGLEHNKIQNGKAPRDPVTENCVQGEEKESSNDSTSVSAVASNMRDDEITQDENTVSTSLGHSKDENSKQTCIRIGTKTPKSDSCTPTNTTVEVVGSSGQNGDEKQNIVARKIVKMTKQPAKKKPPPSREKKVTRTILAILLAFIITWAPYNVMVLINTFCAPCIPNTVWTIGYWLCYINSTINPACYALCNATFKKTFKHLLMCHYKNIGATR

[6] = target: T4, Interstitial collagenase (Homo sapiens, UniProt P03956); experiment: biochemical; type: tissue-based, Rheumatoid synovial fibroblasts;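 also: MMP-1 enzyme inhibition assay using a peptide substrate; in other assays of this panel Not Active means under 50% inhibition at 10 µM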
T4 sequence (P03956 whole entry): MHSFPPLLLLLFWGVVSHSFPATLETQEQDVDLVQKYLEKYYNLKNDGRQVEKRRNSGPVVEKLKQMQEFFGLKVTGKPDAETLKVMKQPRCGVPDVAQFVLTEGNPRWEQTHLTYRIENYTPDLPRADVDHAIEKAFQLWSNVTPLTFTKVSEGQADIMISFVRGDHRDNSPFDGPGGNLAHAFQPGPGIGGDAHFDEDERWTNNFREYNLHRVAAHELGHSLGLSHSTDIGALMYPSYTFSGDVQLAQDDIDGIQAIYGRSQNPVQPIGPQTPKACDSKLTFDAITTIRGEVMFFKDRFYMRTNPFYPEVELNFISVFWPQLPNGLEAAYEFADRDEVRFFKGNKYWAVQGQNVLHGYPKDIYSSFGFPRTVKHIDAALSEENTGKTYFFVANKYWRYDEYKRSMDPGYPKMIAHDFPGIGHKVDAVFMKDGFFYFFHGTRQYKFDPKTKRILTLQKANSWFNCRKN

[7] = target: Acetylcholinesterase (Homo sapiens, UniProt P22303); experiment: DRUGMATRIX: Acetylcholinesterase enzyme inhibition (substrate: acetylthiocholine); type: cell-based, HEK293; conditions: hek293; Not Active = under 50% inhibition at 10 µM
Sequence of Acetylcholinesterase (P22303 whole entry): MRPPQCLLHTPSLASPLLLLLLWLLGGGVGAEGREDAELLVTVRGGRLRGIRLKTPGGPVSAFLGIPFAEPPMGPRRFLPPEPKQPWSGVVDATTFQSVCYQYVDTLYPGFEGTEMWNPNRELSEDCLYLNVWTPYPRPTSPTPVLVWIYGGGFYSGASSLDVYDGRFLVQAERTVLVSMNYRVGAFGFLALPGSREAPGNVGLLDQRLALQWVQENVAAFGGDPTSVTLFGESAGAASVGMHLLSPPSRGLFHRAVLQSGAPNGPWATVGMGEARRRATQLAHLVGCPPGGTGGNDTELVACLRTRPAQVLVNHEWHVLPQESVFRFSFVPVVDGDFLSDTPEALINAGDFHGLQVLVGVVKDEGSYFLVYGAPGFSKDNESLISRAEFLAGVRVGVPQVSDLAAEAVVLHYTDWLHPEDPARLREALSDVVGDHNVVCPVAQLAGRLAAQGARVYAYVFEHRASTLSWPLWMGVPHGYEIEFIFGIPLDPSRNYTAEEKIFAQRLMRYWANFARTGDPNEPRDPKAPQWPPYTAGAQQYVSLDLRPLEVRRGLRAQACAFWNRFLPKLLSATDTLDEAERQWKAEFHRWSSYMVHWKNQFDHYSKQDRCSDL

CCOc1nc2cccc(C(=O)O)c2n1Cc1ccc(-c2ccccc2-c2nnn[nH]2)cc1
Not Active: IC50 [1] | IC50 [2] | IC50 [3] | IC50 [4] | Ki [4] | IC50 [5] | IC50 [6] | IC50 [7]

O=C(O)CCCc1cccs1
Not Active: IC50 [1] | IC50 [2] | IC50 [3] | IC50 [4] | Ki [4] | IC50 [5] | IC50 [6] | IC50 [7]

COc1ccccc1N
Not Active: IC50 [1] | IC50 [2] | IC50 [3] | IC50 [4] | Ki [4] | IC50 [5] | IC50 [6] | IC50 [7]

O=C(c1ccccc1F)N1CCC(Cc2ccccc2)CC1
Not Active: IC50 [1] | IC50 [2] | IC50 [3] | IC50 [4] | Ki [4] | IC50 [5] | IC50 [6] | IC50 [7]

Cc1c(O)cccc1C(=O)N[C@@H](CSc1ccccc1)[C@H](O)CN1C[C@H]2CCCC[C@H]2C[C@H]1C(=O)NC(C)(C)C
Not Active: IC50 [1] | IC50 [2] | IC50 [3] | IC50 [4] | Ki [4] | IC50 [5] | IC50 [6] | IC50 [7]

CC(O)COC[C@H]1O[C@@H]2O[C@H]3[C@H](O)[C@@H](O)[C@@H](O[C@H]4[C@H](O)[C@@H](O)[C@@H](O[C@H]5[C@H](O)[C@@H](O)[C@@H](O[C@H]6[C@H](O)[C@@H](O)[C@@H](O[C@H]7[C@H](O)[C@@H](O)[C@@H](O[C@H]8[C@H](O)[C@@H](O)[C@@H](O[C@H]1[C@H](O)[C@H]2O)O[C@@H]8COCC(C)O)O[C@@H]7COCC(C)O)O[C@@H]6COCC(C)O)O[C@@H]5COCC(C)O)O[C@@H]4COCC(C)O)O[C@@H]3COCC(C)O (stereo partly drawn) [2-HYDROXYPROPYL-BETA-CYCLODEXTRIN]
Not Active: IC50 [1] | IC50 [2] | IC50 [3] | IC50 [4] | Ki [4] | IC50 [5] | IC50 [6] | IC50 [7]

NC(=O)c1cccc(N)c1 [3-AMINOBENZAMIDE]
Not Active: IC50 [1] | IC50 [2] | IC50 [3] | IC50 [4] | Ki [4] | IC50 [5] | IC50 [6] | IC50 [7]

C[C@H]1O[C@H](O[C@H]2[C@H](O)[C@@H](O)[C@@H](O[C@H]3[C@H](O)[C@@H](O)C(O)O[C@@H]3CO)O[C@@H]2CO)[C@H](O)[C@@H](O)[C@@H]1N[C@H]1C=C(CO)[C@@H](O)[C@H](O)[C@H]1O (stereo partly drawn) [ACARBOSE]
Not Active: IC50 [1] | IC50 [2] | IC50 [3] | IC50 [4] | Ki [4] | IC50 [5] | IC50 [6] | IC50 [7]

CC[C@H]1[C@@H]2C[C@H]3[C@@H]4N(C)c5ccccc5[C@]45C[C@@H]([C@@H]2[C@H]5O)N3[C@@H]1O [AJMALINE]
Not Active: IC50 [1] | IC50 [2] | IC50 [3] | IC50 [4] | Ki [4] | IC50 [5] | IC50 [6] | IC50 [7]

NC12CC3CC(CC(C3)C1)C2 [AMANTADINE]
Not Active: IC50 [1] | IC50 [2] | IC50 [3] | IC50 [4] | Ki [4] | IC50 [5] | IC50 [6] | IC50 [7]

NCCCNCCSP(=O)(O)O [AMIFOSTINE]
Not Active: IC50 [1] | IC50 [2] | IC50 [3] | IC50 [4] | Ki [4] | IC50 [5] | IC50 [6] | IC50 [7]

— ChEMBL document CHEMBL1909046, “DrugMatrix in vitro pharmacology data”
